Each structure is given as a SMILES string. Read-outs that look alike come from different tables or passages of the source.

The target in data set [1] is T1, BTK E41K (Homo sapiens, UniProt Q06187, E41K).
T1 construct: against full-length wild type (WT) and mutant human BTK enzymes
Description: BTK activity assay, [33P]-ATP incorporation into poly-EY. As to conditions: ATP at Km concentration. It counts as biochemical. As for the experimental part: (§1) The reaction mixtures each contained polyhistidine-tagged BTK enzyme, poly-EY and BTK inhibitor at the appropriate concentrations. The reaction mixtures are incubated for 20 minutes at room temperature after which [[γ-^33P]-ATP (radiochemical concentration 10 μCi/μL) at 10 μM or the ATP Km concentration for each enzyme is added. After 2 hours of incubation at room temperature, the radiolabeled peptide substrate is captured, and incorporated radioactivity is quantified.

Data set [2] addresses T2, BTK P190K (Homo sapiens, UniProt Q06187, P190K).
T2 construct: against full-length wild type (WT) and mutant human BTK enzymes
Described as above. Format: biochemical. As to conditions: ATP at Km concentration. As for the experimental part: as §1

Data set [3] relates to TMD8 cells. As to the kind of experiment: BTK-dependent proliferation of TMD8 diffuse large B-cell lymphoma cell line. The conditions noted are these: Homo sapiens, from AUC of real-time confluence curves, 0.1 to 1,000 nM. It counts as cell-based. The procedure:
The TMD8 cells are maintained in RPMI 1640 (Gibco Catalog #31870-025) with 10% Fetal Calf Serum (FCS), 1% GLUTAMAX™, Non-Essential Amino-Acids and 1 mM sodium pyruvate. The cells are harvested by centrifugation (5 min, 1200 rpm) prior to reaching a concentration of 3×10^6 cells/mL. The medium is removed and cell pellet resuspended in fresh medium before counting with a Cellometer (Nexcelom). TMD8 cells are seeded at 5×10^4 cells/mL in 20 mL of culture medium in a T75 culture flask and held at 37° C. with 5% CO2.
The anti-proliferation activity of the compound of Formula I with TMD8 cells is accessed by the addition of increasing concentrations of inhibitor from 0.1 to 1,000 nM. A dose-dependent inhibition is observed by real-time assessment of TMD8 confluence. Individual curves for each compound of Formula I concentration are represented in the FIG. 12A.

Data set [4] concerns TMD8 tumor xenografts. Description: Tumor growth in TMD8 human diffuse large B cell lymphoma xenograft model. It counts as in vivo. The procedure:
The human diffuse large B cell lymphoma TMD8 cells are maintained in suspension in RPMI 1640 with 10% Fetal Calf Serum (FCS) and 1% of Glutamax. The cells are transferred to a 50 mL Falcon tube and centrifuged at 1200 rpm for 5 min. The supernatant is removed and the cell pellet resuspended in PBS before being mixed with Matrigel (1/1, v/v). The cell suspension:Matrigel mixture at a final target cell concentration of 40×10^6 cells/mL is kept on ice until the s.c. injections (250 μL/mouse) to maintain the Matrigel solution in a liquid state.
The animals are female BalB/c mice aged 9 weeks-old at the day of injection. The mice are housed in individually ventilated cage racks with HEPA filtered air supply and all materials that contact the immunodeficient animals are steam sterilized. This includes cages, bedding, water and feed. The animal room conditions are set as follows. The temperature is 22±2° C., and the relative humidity is 50±10%. The light/dark cycle is 12 h/12 h, and the air change rate is 12 to 15 cycles/hour of filtered, 100% fresh air. All animals had free access to sterilized water and irradiated controlled food (reference A04CSafe, Augy-France).
The compound of Formula I is formulated in methylcellulose/Tween80/Water (0.6%/0.5%/98.5%; w/w/v). The vehicle for the dosing of control group is methylcellulose/Tween 80/Water (0.6%/0.5%/98.5%; w/w/v), 10 mL/kg. 151.4 mg of the compound of Formula I are weighed and formulated with 50.4 mL of vehicle to obtain a solution at 3 mg/mL of free base. For the 1 mg/mL suspension preparation, 50.1 mg of the compound of Formula I are weighed and solubilized in 50.1 mL of vehicle. […]
Tumor width and length are measured with digital calipers. The tumor volume in mm^3 is calculated by the formula: Volume=0.52×(width)^2×length[…], width and length measured in mm. […]
Tumors are collected from each mouse at Day 28 post the cell injection. […] Tumor weight statistical analysis between each group is determined by a 1-way ANOVA and by 2-Way ANOVA with repeated measures for the mice weight and the tumor volume monitoring, followed by a Dunnett's test. […]
For orientation: Xenograft models place foreign cells or tissue in a host animal.

In data set [5] the target is BTK C481S (Homo sapiens, UniProt Q06187, C481S). As to the kind of experiment: BTK activity assay, [33P]-ATP incorporation into poly-EY. It counts as biochemical. The arrangement: against full-length wild type (WT) and mutant human BTK enzymes. As for the experimental part:
The activity of the compound of Formula I against full-length wild type (WT) and mutant human BTK enzymes is determined by monitoring the incorporation [^33P]-PO4 from [γ-^33P]-ATP into poly-glutamic acid-tyrosine (poly-EY) peptide substrate. The reaction mixtures each contained polyhistidine-tagged BTK enzyme, poly-EY and BTK inhibitor at the appropriate concentrations. The reaction mixtures are incubated for 20 minutes at room temperature after which [[γ-^33P]-ATP (radiochemical concentration 10 μCi/μL) at 10 μM or the ATP Km concentration for each enzyme is added. After 2 hours of incubation at room temperature, the radiolabeled peptide substrate is captured, and incorporated radioactivity is quantified.
Each assay is performed at an ATP concentration close to the Km for each enzyme. […] After co-incubation with a serial dilution of the compound of Formula I, the quantity of ^33P incorporated into a peptide substrate is measured and the data analyzed using standard curve fitting methods.

BTK C481S, sequence (Q06187 whole entry C481S): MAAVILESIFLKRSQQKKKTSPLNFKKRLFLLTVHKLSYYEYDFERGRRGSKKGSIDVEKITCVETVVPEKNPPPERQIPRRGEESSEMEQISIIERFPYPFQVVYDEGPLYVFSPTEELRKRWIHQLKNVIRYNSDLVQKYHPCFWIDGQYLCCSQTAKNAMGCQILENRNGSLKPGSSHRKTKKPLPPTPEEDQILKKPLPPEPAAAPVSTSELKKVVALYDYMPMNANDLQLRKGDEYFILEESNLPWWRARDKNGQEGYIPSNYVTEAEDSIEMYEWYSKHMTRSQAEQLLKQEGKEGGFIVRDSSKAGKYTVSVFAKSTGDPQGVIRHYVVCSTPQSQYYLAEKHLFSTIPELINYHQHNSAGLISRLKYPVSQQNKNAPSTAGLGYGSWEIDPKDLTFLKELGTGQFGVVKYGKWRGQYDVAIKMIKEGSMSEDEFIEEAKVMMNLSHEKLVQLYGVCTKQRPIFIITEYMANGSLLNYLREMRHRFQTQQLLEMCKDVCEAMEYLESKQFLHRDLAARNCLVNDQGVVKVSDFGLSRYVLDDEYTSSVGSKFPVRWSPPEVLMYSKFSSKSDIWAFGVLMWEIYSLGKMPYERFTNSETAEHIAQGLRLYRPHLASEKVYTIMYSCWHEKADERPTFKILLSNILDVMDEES
T2 sequence (Q06187 whole entry P190K): as the sequence (Q06187 whole entry C481S) above, with P190K, S481C counted along it
T1 sequence (Q06187 whole entry E41K): as the sequence (Q06187 whole entry C481S) above, with E41K, S481C counted along it

One may read the IC50 as the concentration that gives 50% inhibition. For `COc1ccc(F)cc1C(=O)NCc1ccc(-c2nn([C@@H](C)C(F)(F)F)c(N)c2C(N)=O)cc1` [compound of Formula I, (S)-5-amino-3-(4-((5-fluoro-2-methoxybenzamido)methyl)phenyl)-1-(1,1,1-trifluoropropan-2-yl)-1H-pyrazole-4-carboxamide], the IC50 in data set [1] was found to be 7.85 nM; in data set [2] it was 2.14 nM; in data set [3], 2.33 nM; in data set [5] (10 μM ATP, read-out: IC50), 0.29 nM; in data set [5] (ATP at Km concentration, read-out: IC50 value), 1.42 nM. The “TGI vs the vehicle treated group” value stood at 35% in data set [4] (10 mg/kg oral BID for 14 days) and 87% in data set [4] (30 mg/kg oral BID for 14 days). Moreover, the tolerability result in data set [4] (chronic oral BID administration for 14 days at 10 and 30 mg/kg) is reported as “well tolerated”.

The record behind these values is patent US12268666B2, “Spray-dried dispersions, formulations, and polymorphs of (S)-5-amino-3-(4-((5-fluoro-2-methoxybenzamido)methyl)phenyl)-1-(1,1,1-trifluoropropan-2-yl)-1H-pyrazole-4-carboxamide” (Loxo Oncology, Inc., priority 2018, dated 2025).
